Measured values taken from patent US20070178054A1, “ORAL ANTIMICROBIAL COMPOSITION” (priority 2005, published 2007).

Legend:
Format in all cases: cell-based, Streptococcus mutans
[1] = tested on: S. mutans UA159; assay: S. mutans biofilm formation, crystal violet staining (OD 630 nm); settings: 24 h, E2 20 μg/ml, combination of both
Procedure: (§1) Streptococcus mutans UA159 strain was used in these Examples. S. mutans strain UA159 was grown in Todd-Hewitt broth containing 0.3% yeast extract (THYE) at pH 7.0 and was subcultured routinely on THYE agar plates and incubated at 37° C. in an anaerobic chamber (5% CO2). In liquid media, cultures were incubated in closed screw-cap tubes without agitation at 37° C. in an anaerobic chamber (5% CO2)
(§2) Wells without cells were used as blank controls.
(§3) The microtiter plates were then incubated at 37° C. in an anaerobic chamber (5% CO2) for 24 hours without agitation. After the incubation, the growth was measured at 600 nm with a microplate reader. The planktonic cells were carefully removed, and plates were air dried overnight. The plates were then stained with 0.4% crystal violet for 10 minutes, rinsed with sterile distilled water and air dried for 15 minutes. Biofilm was quantified by measuring the absorbance of stained biofilm at 630 nm with a microplate reader.

[2] = tested on: biofilm-embedded S. mutans; assay: Survival of biofilm-embedded S. mutans (CFU counts), CSP compositions, 12-well plates; settings: 20 h biofilm, combination of both
Procedure: as §1
(§4) Biofilms were developed in 12-well polystyrene microtiter plates to provide a rapid and simple method for assaying biofilm-embedded live oral bacteria (e.g. S. mutans). A 4× diluted THYE medium supplemented with final concentration of 0.01% hog gastric mucin (Sigma) was used as biofilm medium (BM). Fonnation of biofilms was initiated by inoculating 20 μl of S. mutans cell suspension (1.2×10^7 CFU/ml) into each well containing 2 ml of BM and four wells were set up: two for control and two for treatment with compositions comprising synthetic CSP and Nisin or chlorhexidine or xylitol or triclosan or citric acid or zinc citrate or sodium fluoride or oleanolic acid or lansoprazole or epigallocatechin gallate or chitosan. After cultures were incubated at 37° C. for 20 hours under an anaerobic condition, fluid media were removed. The wells were rinsed once with 10 mM PBS buffer (pH 7.2) and biofilm-embedded cells were collected in two ml PBS buffer, gently sonicated for 15 seconds, serially diluted, spread on THYE plates, and incubated at 37° C. under anaerobic conditions. Biofilm-embedded viable cells were quantified by colony forming unit (CFU) counts after 48 hours of incubation.

[3] = tested on: S. mutans UA159; assay: S. mutans growth in 96-well microtiter plate (OD 600 nm); settings: 24 h, E2 20 μg/ml, combination of both
Procedure: as §1, §2, §3

[4] = tested on: biofilm-embedded S. mutans; assay: Survival of biofilm-embedded S. mutans (CFU counts), E2 peptide compositions, 12-well plates; settings: 20 h biofilm, E2 20 μg/ml, combination of both
Procedure: as §1
as §4, with “developed on” for “developed in”, “mucin (Sigma, St. Louis, Mo.)” for “mucin (Sigma)”, “(BM). Formation” for “(BM). Fonnation”, “synthetic E2 peptide” for “synthetic CSP”, “or E2 and CHX.” for “or chlorhexidine or xylitol or triclosan or citric acid or zinc citrate or sodium fluoride or oleanolic acid or lansoprazole or epigallocatechin gallate or chitosan.”, “fluid medium was” for “fluid media were”

[5] = tested on: biofilm-embedded S. mutans; assay: as above; settings: 20 h biofilm, E2 20 μg/ml, combination of both; remark: listed apart in the source
[6] = CSP 40 μg/ml, chlorhexidine 0.15 μg/ml, control 1.4 × 10^6
[7] = chlorhexidine 0.15 μg/ml, control 1.4
[8] = citric acid 1.2 mg/ml, control 1.23
[9] = CSP 40 μg/ml, citric acid 1200 μg/ml, control 3.4 × 10^5
[10] = citric acid 1.2 mg/ml, control 0.34
[11] = citric acid 1200 μg/ml, control 1.7
[12] = lansoprazole 0.1 mM, control 1.32
[13] = CSP 40 μg/ml, lansoprazole 37 μg/ml, control 1.2 × 10^6
[14] = lansoprazole 0.1 mM, control 0.38
[15] = lansoprazole 37 μg/ml, control 8
[16] = CSP 40 μg/ml, oleanolic acid 250 μg/ml, control 4 × 10^5
[17] = sodium fluoride 600 μg/ml, control 0.93
[18] = CSP 40 μg/ml, sodium fluoride 250 μg/ml, control 2.6 × 10^5
[19] = sodium fluoride 600 μg/ml, control 0.40
[20] = sodium fluoride 800 μg/ml, control 2.9
[21] = triclosan 25 μg/ml, control 1.58
[22] = CSP 40 μg/ml, triclosan 500 μg/ml, control 6.8 × 10^5
[23] = triclosan 25 μg/ml, control 0.33
[24] = xylitol 15.2 mg/ml, control 0.78
[25] = xylitol 15.2 mg/ml, control 0.37
[26] = CSP 40 μg/ml, zinc citrate 1200 μg/ml, control 8 × 10^5
[27] = CSP 50 μg/ml, nisin 80 μg/ml, control 1.6 × 10^6

## [H]/N=C(\N/C(=N/[H])NCCCCCCNC(=N)NC(=N)Nc1ccc(Cl)cc1)Nc1ccc(Cl)cc1 [CHX, Chlorhexidine, reference compound]
[1]; CHX 0.154 μg/ml, control 0.88
  Biofilm (OD @ 630 nm): 1.00 OD
[2]; [6]
  CPU: 2 × 10^6 CFU
[3]; CHX 0.154 μg/ml, control 0.39
  Growth (OD @ 600 nm): 0.39 OD
[4]; [7]
  CFU × 10^6: 1.9 CFU × 10^6

## O=C(O)CC(O)(CC(=O)O)C(=O)O [Citric acid, citric acid]
[1]; [8]
  Biofilm (OD @ 630 nm): 0.38 OD
[2]; [9]
  CPU: 8 × 10^4 CFU
[3]; [10]
  Growth (OD @ 600 nm): 0.02 OD
[5]; [11]
  CFU × 10^6: 0.05 CFU × 10^6

## O=C(O[C@@H]1Cc2c(O)cc(O)cc2O[C@@H]1c1cc(O)c(O)c(O)c1)c1cc(O)c(O)c(O)c1 [EGCg, Epigallocatechin gallate]
[1]; EGCg 150 μg/ml, control 1.52
  Biofilm (OD @ 630 nm): 0.41 OD
[3]; EGCg 150 μg/ml, control 0.32
  Growth (OD @ 600 nm): 0.08 OD

## Cc1c(OCC(F)(F)F)ccnc1C[S+]([O-])c1nc2ccccc2[nH]1 (stereo not drawn) [Lansoprazole, lansoprazole, reference compound]
[1]; [12]
  Biofilm (OD @ 630 nm): 1.35 OD
[2]; [13]
  CPU: 1 × 10^6 CFU
[3]; [14]
  Growth (OD @ 600 nm): 0.4 OD
[5]; [15]
  CFU × 10^6: 6.2 CFU × 10^6

## CC1(C)CC[C@]2(C(=O)O)CC[C@]3(C)C(=CC[C@@H]4[C@@]5(C)CC[C@H](O)C(C)(C)[C@@H]5CC[C@]43C)[C@@H]2C1 [OA, Oleanolic acid]
[1]; OA 2 μg/ml, control 0.8
  Biofilm (OD @ 630 nm): 0.94 OD
[2]; [16]
  CPU: 1.7 × 10^5 CFU
[3]; OA 2 μg/ml, control 0.4
  Growth (OD @ 600 nm): 0.32 OD

## [F-].[Na+] [Sodium fluoride, sodium fluoride, reference compound]
[1]; [17]
  Biofilm (OD @ 630 nm): 0.12 OD
[2]; [18]
  CPU: 7 × 10^5 CFU
[3]; [19]
  Growth (OD @ 600 nm): 0.02 OD
[5]; [20]
  CFU × 10^6: 2.7 CFU × 10^6

## Oc1cc(Cl)ccc1Oc1ccc(Cl)cc1Cl [Triclosan, triclosan, reference compound]
[1]; [21]
  Biofilm (OD @ 630 nm): 1.69 OD
[2]; [22]
  CPU: 7 × 10^2 CFU
[3]; [23]
  Growth (OD @ 600 nm): 0.33 OD

## OC[C@@H](O)[C@H](O)[C@@H](O)CO [Xylitol, xylitol]
[1]; [24]
  Biofilm (OD @ 630 nm): 0.32 OD
[3]; [25]
  Growth (OD @ 600 nm): 0.07 OD

## O=C([O-])CC(O)(CC(=O)[O-])C(=O)[O-].O=C([O-])CC(O)(CC(=O)[O-])C(=O)[O-].[Zn+2].[Zn+2].[Zn+2] [Zinc citrate, zinc citrate]
[2]; [26]
  CPU: 0.8 × 10^5 CFU

## SGSLSTFFRLFNASFTQALGK (Synthetic E2) [Peptide E2, second arginine from the C' terminus substituted with alanine]
[1]; CHX 0.154 μg/ml, control 0.88
  Biofilm (OD @ 630 nm): 0.34 OD
[1]; EGCg 150 μg/ml, control 1.52
  Biofilm (OD @ 630 nm): 0.92 OD
[1]; OA 2 μg/ml, control 0.8
  Biofilm (OD @ 630 nm): 0.33 OD
[1]; chitosan 1 μg/ml, control 2.10
  Biofilm (OD @ 630 nm): 1.18 OD
[1]; [8]
  Biofilm (OD @ 630 nm): 0.54 OD
[1]; [12]
  Biofilm (OD @ 630 nm): 0.4 OD
[1]; nisin 80 μg/ml, control 1.03
  Biofilm (OD @ 630 nm): 0.24 OD
[1]; [17]
  Biofilm (OD @ 630 nm): 0.16 OD
[1]; [21]
  Biofilm (OD @ 630 nm): 1.00 OD
[1]; [24]
  Biofilm (OD @ 630 nm): 0.34 OD
[3]; CHX 0.154 μg/ml, control 0.39
  Growth (OD @ 600 nm): 0.11 OD
[3]; EGCg 150 μg/ml, control 0.32
  Growth (OD @ 600 nm): 0.22 OD
[3]; OA 2 μg/ml, control 0.4
  Growth (OD @ 600 nm): 0.26 OD
[3]; chitosan 1 μg/ml, control 0.37
  Growth (OD @ 600 nm): 0.28 OD
[3]; [10]
  Growth (OD @ 600 nm): 0.26 OD
[3]; [14]
  Growth (OD @ 600 nm): 0.2 OD
[3]; nisin 80 μg/ml, control 0.36
  Growth (OD @ 600 nm): 0.11 OD
[3]; [19]
  Growth (OD @ 600 nm): 0.23 OD
[3]; [23]
  Growth (OD @ 600 nm): 0.12 OD
[3]; [25]
  Growth (OD @ 600 nm): 0.12 OD
[4]; [7]
  CFU × 10^6: 0.9 CFU × 10^6
[4]; nisin 80 μg/ml, control 2.8
  CFU × 10^6: 2.5 CFU × 10^6
[5]; chitosan 1 μg/ml, control 1.4
  CFU × 10^6: 0.1 CFU × 10^6
[5]; [11]
  CFU × 10^6: 0.6 CFU × 10^6
[5]; [15]
  CFU × 10^6: 4.3 CFU × 10^6
[5]; [20]
  CFU × 10^6: 1 CFU × 10^6

## SGSLSTFFRLFNRSFTQALGK (Streptococcus mutans) [CSP]
[2]; CSP 40 μg/ml, chitosan 0.25 μg/ml, control 7.6 × 10^5
  CPU: 2.2 × 10^5 CFU
[2]; [6]
  CPU: 0.1 × 10^6 CFU
[2]; [9]
  CPU: 2 × 10^4 CFU
[2]; [13]
  CPU: 1.4 × 10^6 CFU
[2]; [16]
  CPU: 2 × 10^4 CFU
[2]; [18]
  CPU: 1.7 × 10^5 CFU
[2]; [22]
  CPU: 7 × 10^4 CFU
[2]; [26]
  CPU: 0.5 × 10^5 CFU
[2]; [27]
  CPU: 1 × 10^6 CFU

## nisin
[1]; nisin 80 μg/ml, control 1.03
  Biofilm (OD @ 630 nm): 0.6 OD
[2]; [27]
  CPU: 1 × 10^6 CFU
[3]; nisin 80 μg/ml, control 0.36
  Growth (OD @ 600 nm): 0.23 OD
[4]; nisin 80 μg/ml, control 2.8
  CFU × 10^6: 3.0 CFU × 10^6
